Data from patent publication US9907859B2 (priority 2010, dated 2018).
≈ marks a conversion by molar mass, not a printed value. Where “and” joins values, the source holds several entries; their conditions need not be identical. Identical values can stand only once. Like-named read-outs stand apart in the source and are kept apart here.

How the values were obtained:
[1] = in vivo; settings: New Zealand White, rabbit, po, 100 mg/kg
[2] = tested on: ectromelia virus (ECTV); settings: read-out: 50% effective concentration [EC50], inhibition of virus replication; cited from earlier work
[3] = in vivo; settings: for AUC(0-t) / Cmax / half-life / clearance: iv
[4] = physchem; settings: 70 °C, aqueous with cosolvent or surfactant or cyclodextrin
[5] = tested on: CV; settings: in vivo; cited from earlier work
[6] = in vivo; settings: both, cynomolgus monkey, po; for AUC(0-inf): AUCINF—obs
[7] = in vivo; settings: mouse, po
[8] = tested on: vaccinia virus (VV); settings: in vitro, read-out: 50% effective concentration [EC50], inhibition of virus replication; cited from earlier work
[9] = rabbit, in vivo
[10] = tested on: VV; settings: mouse, in vivo; cited from earlier work

With `O=C(NN1C(=O)C2C3C=CC(C4CC34)C2C1=O)c1ccc(C(F)(F)F)cc1` (stereo not drawn) [ST-246, 4-trifluoromethyl-N-(3,3a,4,4a,5,5a,6,6a-octahydro-1,3-dioxo-4,6-ethenocycloprop[f]isoindol-2(1H)-yl)-benzamide] the “Solubility of ST-246” value (4 ° C.) was 5.47 and 6.05, the “Solubility of ST-246” value (25 ° C.) was 9.21 and 10.59 and the “Solubility of ST-246” value (40 ° C.) was 12.99 and 12.23. The “Solubility of ST-246” value (60 ° C.) was 17.41 and 16.21, the AUC(0-t) ([1]; both) was 19.8 µg·h/mL and the CL/F ([1]; both) was 120 mL/min/kg. For the same molecule, the Cmax ([1]; both) was 2.86 µg/mL, the half-life ([1]; both) was 3.7 h and the AUC(0-t) ([1]; female) was 8.18 µg·h/mL. It also gave a Cmax ([1]; female) of 1.23 µg/mL, a half-life ([1]; female) of 1.3 h and an AUC(0-t) ([1]; male) of 26.4 µg·h/mL. For the same molecule, the Cmax ([1]; male) was 4.48 µg/mL, the half-life ([1]; male) was 6 h and the EC50 [2] was no more than 70 nM. It also gave a bioavailability ([3]; female, BALB/c (oral), CD-1 (IV), mouse, 30 mg/kg) of roughly 41%, an AUC(0-t) ([3]; female, BALB/c, mouse, 2.3 mg/kg, AUC0-24) of 87.8 µg·h/mL and a Cmax ([3]; female, BALB/c, mouse, 2.3 mg/kg, Cmax) of 22.4 µg/mL. It also gave an AUC(0-t) ([3]; female, BALB/c, mouse, 3 mg/kg, AUC0-24) of 100 µg·h/mL, a Cmax ([3]; female, BALB/c, mouse, 3 mg/kg, Cmax) of 78.4 µg/mL and an AUC(0-t) ([3]; female, BALB/c, mouse, 7.6 mg/kg, AUC0-24) of 218 µg·h/mL. For the same molecule, the Cmax ([3]; female, BALB/c, mouse, 7.6 mg/kg, Cmax) was 37.6 µg/mL, the AUC(0-t) ([3]; female, BALB/c, mouse, 30 mg/kg, AUC0-24) was 300 µg·h/mL and the Cmax ([3]; female, BALB/c, mouse, 30 mg/kg, Cmax) was 149 µg/mL. For the same molecule, the AUC(0-t) ([3]; female, BALB/c, mouse, 34.3 mg/kg, AUC0-24) was 873 µg·h/mL, the Cmax ([3]; female, BALB/c, mouse, 34.3 mg/kg, Cmax) was 162 µg/mL and the half-life ([3]; female, CD-1, mouse) was 2.5 to 4.5 h. The clearance ([3]; female, CD-1, mouse, 3 mg/kg) was 0.717 mL/min/kg, the half-life ([3]; female, CD-1, mouse, 3 mg/kg) was 4.5 h and the AUC(0-t) ([3]; female, CD-1, mouse, 3 mg/kg, AUC0-24) was 67.9 µg·h/mL. For the same molecule, the AUC(0-t) ([3]; female, CD-1, mouse, 3 mg/kg, AUC0-24 hr) was 68 µg·h/mL, the Cmax ([3]; female, CD-1, mouse, 3 mg/kg, Cmax) was 16.7 µg/mL and the clearance ([3]; female, CD-1, mouse, 10 mg/kg) was 0.417 mL/min/kg. For the same molecule, the half-life ([3]; female, CD-1, mouse, 10 mg/kg) was 2.8 h, the AUC(0-t) ([3]; female, CD-1, mouse, 10 mg/kg, AUC0-24) was 408 µg·h/mL and the AUC(0-t) ([3]; female, CD-1, mouse, 10 mg/kg, AUC0-24 hr) was 408 µg·h/mL. The Cmax ([3]; female, CD-1, mouse, 10 mg/kg, Cmax) was 63.5 µg/mL, the clearance ([3]; female, CD-1, mouse, 30 mg/kg) was 0.7 mL/min/kg and the half-life ([3]; female, CD-1, mouse, 30 mg/kg) was 2.5 h. It also gave an AUC(0-t) ([3]; female, CD-1, mouse, 30 mg/kg, AUC0-24) of 709 µg·h/mL, an AUC(0-t) ([3]; female, CD-1, mouse, 30 mg/kg, AUC0-24 hr) of 709 µg·h/mL and a Cmax ([3]; female, CD-1, mouse, 30 mg/kg, Cmax) of 127 µg/mL. For the same molecule, the clearance ([3]; female, CD-1, mouse, 75 mg/kg) was 1 mL/min/kg, the half-life ([3]; female, CD-1, mouse, 75 mg/kg) was 2.8 h and the AUC(0-t) ([3]; female, CD-1, mouse, 75 mg/kg, AUC0-24) was 1250 µg·h/mL. The AUC(0-t) ([3]; female, CD-1, mouse, 75 mg/kg, AUC0-24 hr) was 1250 µg·h/mL, the Cmax ([3]; female, CD-1, mouse, 75 mg/kg, Cmax) was 238 µg/mL and the Cmax ([3]; female, CD-1, mouse, 75 mg/kg, mean Cmax) was 238 µg/mL. The Cmax ([3]; female, mouse, 30 mg/kg, Cmax) was 120 µg/mL, the AUC(0-t) ([3]; male, BALB/c, mouse, 2.3 mg/kg, AUC0-24) was 73.3 µg·h/mL and the Cmax ([3]; male, BALB/c, mouse, 2.3 mg/kg, Cmax) was 20 µg/mL. For the same molecule, the AUC(0-t) ([3]; male, BALB/c, mouse, 7.6 mg/kg, AUC0-24) was 170 µg·h/mL, the Cmax ([3]; male, BALB/c, mouse, 7.6 mg/kg, Cmax) was 53.8 µg/mL and the AUC(0-t) ([3]; male, BALB/c, mouse, 34.3 mg/kg, AUC0-24) was 798 µg·h/mL. The Cmax ([3]; male, BALB/c, mouse, 34.3 mg/kg, Cmax) was 191 µg/mL, the solubility [4] was 21.2 mg/mL (≈ 56.4 mM) and the “preventing or reducing mortality” value [5] was “highly effective in preventing or reducing mortality”. For the same molecule, the “toxicity in animal model” value [5] was “nontoxic”, the CL/F ([6]; 0.3 mg/kg) was 15.3 mL/min/kg and the Tmax ([6]; 0.3 mg/kg) was 2.5 h. The half-life ([6]; 0.3 mg/kg) was 4 ± 1.3 h, the AUC(0-inf) ([6]; 0.3 mg/kg) was 0.38 ± 0.149 µg·h/mL and the Cmax ([6]; 0.3 mg/kg) was 0.0538 ± 0.0275 µg/mL. For the same molecule, the AUC(0-t) ([6]; 3 mg/kg) was 3.86 ± 0.862 µg·h/mL, the CL/F ([6]; 3 mg/kg) was 11.2 mL/min/kg and the Tmax ([6]; 3 mg/kg) was 3.3 h. For the same molecule, the half-life ([6]; 3 mg/kg) was 9.9 ± 6 h, the AUC(0-inf) ([6]; 3 mg/kg) was 4.53 ± 0.49 µg·h/mL and the Cmax ([6]; 3 mg/kg) was 0.496 ± 0.145 µg/mL. It also gave an AUC(0-t) ([6]; 10 mg/kg) of 10.3 ± 3.06 µg·h/mL, a CL/F ([6]; 10 mg/kg) of 15.3 mL/min/kg and a Tmax ([6]; 10 mg/kg) of 3.8 h. The half-life ([6]; 10 mg/kg) was 7 ± 0.9 h, the AUC(0-inf) ([6]; 10 mg/kg) was 11.8 ± 3.67 µg·h/mL and the Cmax ([6]; 10 mg/kg) was 1.08 ± 0.279 µg/mL. It also gave an AUC(0-t) ([6]; 20 mg/kg) of 13.4 ± 8.02 µg·h/mL, a CL/F ([6]; 20 mg/kg) of 20.1 mL/min/kg and a Tmax ([6]; 20 mg/kg) of 3.2 h. It also gave a half-life ([6]; 20 mg/kg) of 7.2 ± 2.3 h, an AUC(0-inf) ([6]; 20 mg/kg) of 15.5 ± 9.15 µg·h/mL and a Cmax ([6]; 20 mg/kg) of 1.48 ± 0.864 µg/mL. It also gave an AUC(0-t) ([6]; 30 mg/kg) of 20.5 ± 8.05 µg·h/mL, a CL/F ([6]; 30 mg/kg) of 16.5 mL/min/kg and a Tmax ([6]; 30 mg/kg) of 3.6 h. It also gave a half-life ([6]; 30 mg/kg) of 17.7 ± 13.8 h, an AUC(0-inf) ([6]; 30 mg/kg) of 31.9 ± 7.36 µg·h/mL and a Cmax ([6]; 30 mg/kg) of 1.99 ± 0.873 µg/mL. It also gave a half-life ([7]; female, BALB/c) of 2.2 to 4.5 h, a CL/F ([7]; female, BALB/c, 30 mg/kg) of 1.7 mL/min/kg and a half-life ([7]; female, BALB/c, 30 mg/kg) of 2.4 h. For the same molecule, the AUC(0-t) ([7]; female, BALB/c, 30 mg/kg, AUC0-24) was 292 µg·h/mL, the AUC(0-t) ([7]; female, BALB/c, 30 mg/kg, AUC0-24 hr) was 292 µg·h/mL and the Cmax ([7]; female, BALB/c, 30 mg/kg) was 37.5 µg/mL. The CL/F ([7]; female, BALB/c, 100 mg/kg) was 3.65 mL/min/kg, the half-life ([7]; female, BALB/c, 100 mg/kg) was 2.2 h and the AUC(0-t) ([7]; female, BALB/c, 100 mg/kg, AUC0-24 hr) was 456 µg·h/mL. It also gave a Cmax ([7]; female, BALB/c, 100 mg/kg) of 43.8 µg/mL, a CL/F ([7]; female, BALB/c, 300 mg/kg) of 7.3 mL/min/kg and a half-life ([7]; female, BALB/c, 300 mg/kg) of 4.1 h. The AUC(0-t) ([7]; female, BALB/c, 300 mg/kg, AUC0-24 hr) was 669 µg·h/mL, the Cmax ([7]; female, BALB/c, 300 mg/kg) was 64 µg/mL and the CL/F ([7]; female, BALB/c, 1000 mg/kg) was 18.9 mL/min/kg. The half-life ([7]; female, BALB/c, 1000 mg/kg) was 4.5 h, the AUC(0-t) ([7]; female, BALB/c, 1000 mg/kg, AUC0-24 hr) was 852 µg·h/mL and the Cmax ([7]; female, BALB/c, 1000 mg/kg) was 66 µg/mL. The AUC(0-t) ([7]; female, 100 mg/kg, AUC0-24) was 456 µg·h/mL, the AUC(0-t) ([7]; female, 300 mg/kg, AUC0-24) was 669 µg·h/mL and the Cmax ([7]; female, 300 mg/kg) was 64 µg/mL. It also gave an AUC(0-t) ([7]; female, 500 mg/kg, AUC0-24) of 515 µg·h/mL, a Cmax ([7]; female, 500 mg/kg) of 56.6 µg/mL and an AUC(0-t) ([7]; female, 600 mg/kg, AUC0-24) of 854 µg·h/mL. For the same molecule, the Cmax ([7]; female, 600 mg/kg) was 95.3 µg/mL, the Cmax ([7]; female, 1000 mg/kg) was 66.3 µg/mL and the AUC(0-t) ([7]; female, 2000 mg/kg, AUC0-24) was 607 µg·h/mL. For the same molecule, the Cmax ([7]; female, 2000 mg/kg) was 69.9 µg/mL, the AUC(0-t) ([7]; male, BALB/c, 30 mg/kg, AUC0-24) was 241 µg·h/mL and the Cmax ([7]; male, BALB/c, 30 mg/kg) was 30.4 µg/mL. For the same molecule, the Cmax ([7]; male, BALB/c, 100 mg/kg) was 38.4 µg/mL, the AUC(0-t) ([7]; male, 100 mg/kg, AUC0-24) was 343 µg·h/mL and the AUC(0-t) ([7]; male, 300 mg/kg, AUC0-24) was 484 µg·h/mL. It also gave a Cmax ([7]; male, 300 mg/kg) of 48.5 µg/mL, an AUC(0-t) ([7]; male, 500 mg/kg, AUC0-24) of 413 µg·h/mL and a Cmax ([7]; male, 500 mg/kg) of 36.6 µg/mL. It also gave an AUC(0-t) ([7]; male, 600 mg/kg, AUC0-24) of 765 µg·h/mL, a Cmax ([7]; male, 600 mg/kg) of 82.8 µg/mL and a Cmax ([7]; male, 1000 mg/kg) of 61.1 µg/mL. For the same molecule, the AUC(0-t) ([7]; male, 2000 mg/kg, AUC0-24) was 508 µg·h/mL, the Cmax ([7]; male, 2000 mg/kg) was 50.9 µg/mL and the EC50 [8] was no more than 70 nM. For the same molecule, the “time to full recovery” value ([9]; both, New Zealand White, iv, 60 mg/kg) was 30 to 60 min, the tolerability [9] was “well-tolerated” and the tolerability ([9]; 3 mg/kg) was “well-tolerated”. For the same molecule, the tolerability ([9]; iv, 1 mg/kg) was “well tolerated”, the clinical signs ([9]; iv, 60 mg/kg) was “lethargy, labored breathing and narcosis” and the tail lesions [10] was “significantly reduced”.
